{"source": "patent US20220152012A1", "about": "(The Regents of the University of California, priority 2020, published 2022)", "key": {"[1]": {"test_system": "human hepatic stellate cells from non-fibrotic subjects", "assay": "Prevention of TGF-β or H2O2-induced collagen production (Sirius Red)", "format": "cell-based", "details": "inducer alone: H2O2 25 μM or TGF-β 20 ng/mL, 24 h, vs vehicle", "description": "Hepatic stellate cell fibrosis quantification.\nHepatic stellate cell fibrosis was assessed by measuring collagen content by Sirius Red staining kit."}, "[2]": {"test_system": "human hepatic stellate cells from normal non-fibrosis subjects", "assay": "ROS (DCFDA) after oxidative stress induced by palmitic acid or H2O2", "format": "cell-based", "details": "inducer alone: palmitic acid 0.5 mM or H2O2 25 μM, vs vehicle", "description": "Reactive Oxygen Species (ROS) quantification. ROS production, as an index of oxidative stress, in stellate cells was measured using DCFDA fluorescence as described previously. In brief, cells were incubated with DCFDA (10 μmol/L) for 30 min."}, "[3]": {"details": "cited from earlier work"}, "[4]": {"details": "cited from earlier work", "remark": "listed apart in the source"}, "[5]": {"details": "cited from earlier work", "remark": "listed apart in the source"}}, "note": "Where two headings read alike, the source gives them in different places.", "data": [{"molecule": "OO", "note": "[H2O2, hydrogen peroxide]", "values": [{"measurement": "increase of collagen content", "setting": "[1]", "result": 266, "unit": "%"}, {"measurement": "induction of stellate cell ROS levels", "setting": "[2]", "result": 5.2, "unit": "fold"}]}, {"molecule": "O=C(O[C@H]1[C@H](OC(=O)c2cccnc2)[C@@H](OC(=O)c2cccnc2)[C@H](OC(=O)c2cccnc2)[C@@H](OC(=O)c2cccnc2)[C@H]1OC(=O)c1cccnc1)c1cccnc1", "note": "[inositol hexanicotinate]", "values": [{"measurement": "peak plasma level of nicotinic acid", "setting": "[3]; 1,000 mg of IHN (˜910 mg nicotinic acid equivalent), oral", "result": 0.2, "unit": "µg/mL"}, {"measurement": "time for hydrolysis of the ester bonds and release of free nicotinic acid", "setting": "[3]; human serum", "result": "more than 48 hours"}, {"measurement": "time of peak plasma levels of free nicotinic acid", "setting": "[3]; oral doses of 0.8 to 4.2 g of inositol hexanicotinate, humans", "result": "6 to 12", "unit": "h"}, {"measurement": "gastrointestinal absorption, average of orally ingested dose absorbed", "setting": "[3]; oral", "result": 70, "unit": "%"}, {"measurement": "tolerability", "setting": "[4]; in vivo", "result": "well tolerated"}, {"measurement": "management of dyslipidemia", "setting": "[4]; vs placebo (Keenan 2010)", "result": "no better than placebo"}]}, {"molecule": "O=C(O)c1cccnc1", "note": "[niacin, nicotinic acid]", "values": [{"measurement": "absorption", "setting": "[5]; oral amounts of 3-4 grams", "result": "nearly complete"}, {"measurement": "time of peak plasma levels of free nicotinic acid", "setting": "[5]; oral dose of 1000 mg of nicotinic acid", "result": "0.5 to 1", "unit": "h"}, {"measurement": "eliminated by the kidneys as unchanged niacin or nicotinuric acid", "setting": "[5]; oral pharmacologic dose", "result": "Approximately 88%"}, {"measurement": "peak plasma level of nicotinic acid", "setting": "[5]; single oral dose of 1000 mg nicotinic acid", "result": 30, "unit": "µg/mL"}]}, {"molecule": "CCCCCCCCCCCCCCCC(=O)O", "note": "[palmitic acid]", "values": [{"measurement": "induction of stellate cell ROS levels", "setting": "[2]", "result": 3.6, "unit": "fold"}]}, {"molecule": "TGF-β", "values": [{"measurement": "increase of collagen content", "setting": "[1]", "result": 233, "unit": "%"}]}]}
